Key:
Streptococcus gordonii = assay: Antibacterial effect against Streptococcus gordonii, growth by change of optical density; format: cell-based; conditions: 5 mg in 6 well plates, 0 h vs 24 h, starting density 1.8; P/S 4%
Procedure: The microparticles loaded with totarol were then tested for their antibacterial effect against Streptococcus gordonii (S.G.). For this purpose, 5 mg of totarol-loaded microparticles were given into 6 well plates and covered with a solution of S.G. For comparison, 5 mg of unloaded microparticles, 5 mg of free totarol, pure medium (Schaedler Medium of the company BD), medium with S.G. and medium with S.G. and 4% P/S (penicillin streptomycin) as positive control were measured. By means of the change of the optical density the growth of S.G. was determined. The starting density of S.G. was 1.8. In FIG. 3 the measured results at zero hour (left columns) and after 24 hours (right columns) is shown.

human cells = conditions: cited from earlier work
fresh human whole blood = assay: Hemocompatibility in whole blood according to ISO 10993-4; format: cell-based; conditions: 1 hour
Procedure: Finally in vitro tests were performed where totarol and microparticles loaded with totarol were brought into contact with whole blood. The effect on erythrozytes, platelets, leucozytes as well as the complement and coagulation cascade was examined.
The measurements were made according ISO 10993-4, in determining various markers with a central importance within the hemostatic system.
Shown are the means values and standard deviations (n=3).
Shown are the mean values and standard deviations (n=3).

bacteria = conditions: in vitro; cited from earlier work
Staphylococcus aureus [1] = assay: Soaked filter paper on agar plates with S. aureus, inhibition zone; format: cell-based; conditions: 24 hours at 37° C., compared with EtAc control
Procedure: The experiment was repeated with filter paper which was soaked with pure totarol, with microparticles loaded with totarol and with EtAc, and which was incubated on agar plates, onto which S. aureus was cultivated.

Staphylococcus aureus [2] = assay: Growth of S. aureus in suspension, optical density at 600 nm; format: cell-based; conditions: dissolved in ethyl acetate, 6 hours of incubation
Procedure: The antibacterial effect on Staphylococcus aureus (S. aureus) of totarol and the microparticles loaded with totarol was tested in vitro in a further experiment. It was shown that a concentration of 0.1 mg/ml of totarol dissolved in ethyl acetate (EtAc) was sufficient to inhibit the growth of S. aureus in suspension after 6 hours of incubation.

Staphylococcus aureus [3] = assay: S. aureus seeded onto agar plates, inhibition zone; format: cell-based; conditions: 1 mg pure totarol or 10 mg microparticles loaded with about 1 mg totarol, 24 hours at 37° C.
Procedure: In further experiments the S. aureus bacteria were seeded onto agar plates and treated with 1 mg of pure totarol, 10 mg of unloaded microparticles, and 10 mg of microparticles loaded with about 1 mg of totarol.

[4] = test system: multi-resistant Staphylococcus aureus (MRSA); conditions: cited from earlier work

Question: What does the source list for `CC(C)c1c(O)ccc2c1CC[C@H]1C(C)(C)CCC[C@]21C` [totarol, (4bS,8aS)-4b,8,8-Trimethyl-1-propan-2-yl-5,6,7,8a,9,10-hexahydrophenanthren-2-ol]?
Answer: reduction of the bacterial concentration (growth of S.G. by optical density) (Streptococcus gordonii): stronger reduction of the bacterial concentration than totarol-loaded microparticles; concentration at which toxic and inhibits the growth of human cells (human cells): more than 5 μg/ml; effects on the hemostatic system (fresh human whole blood; 0.1 mg/ml totarol, 1 mg/ml totarol MP, vs control and unloaded microparticles): neither totarol nor the microparticles loaded with totarol have negative effects; hemocompatibility (fresh human whole blood; blood contact): good hemocompatibility; minimum concentration where totarol still has an antibacterial effect (bacteria): 2 µg/mL; inhibition zone around the filter paper (Staphylococcus aureus [1]): clear inhibition zone; concentration sufficient to inhibit the growth of S. aureus in suspension (Staphylococcus aureus [2]): 0.1 mg/mL; inhibition zone on agar plates (Staphylococcus aureus [3]): clear inhibition zone; effectiveness against MRSA [4]: effective
